Source: BindingDB's records for doi:10.1038/nchembio.2087 (University of Oxford, 2016)

Assays:
Assay in all cases: Demethylase AlphaScreen Assay
Settings in all cases: pH 7.5
[1] = target: Lysine-specific demethylase 5B (Homo sapiens, UniProt Q9UGL1)
Description: (§1) The demethylase AlphaScreen assay was performed in 384-well plate format using white proxiplates (PerkinElmer), and transfer of compound (100 nl) was performed using an ECHO 550 acoustic dispenser (Labcyte). […] All subsequent steps were carried out in assay buffer (50 mM HEPES, pH 7.5, 0.1% (wt/vol) BSA and 0.01% (vol/vol) Tween-20). In brief, 5 μl of assay buffer containing demethylase enzyme at 2× final assay concentration (see Supplementary Table 3c for assay specifics) was preincubated for 15 min with dilutions of compound.

[2] = target: T1, Lysine-specific demethylase 5D [1-775] (Homo sapiens, UniProt Q9BY66)
T1 construct: 1-775
T1 sequence (Q9BY66 1-775): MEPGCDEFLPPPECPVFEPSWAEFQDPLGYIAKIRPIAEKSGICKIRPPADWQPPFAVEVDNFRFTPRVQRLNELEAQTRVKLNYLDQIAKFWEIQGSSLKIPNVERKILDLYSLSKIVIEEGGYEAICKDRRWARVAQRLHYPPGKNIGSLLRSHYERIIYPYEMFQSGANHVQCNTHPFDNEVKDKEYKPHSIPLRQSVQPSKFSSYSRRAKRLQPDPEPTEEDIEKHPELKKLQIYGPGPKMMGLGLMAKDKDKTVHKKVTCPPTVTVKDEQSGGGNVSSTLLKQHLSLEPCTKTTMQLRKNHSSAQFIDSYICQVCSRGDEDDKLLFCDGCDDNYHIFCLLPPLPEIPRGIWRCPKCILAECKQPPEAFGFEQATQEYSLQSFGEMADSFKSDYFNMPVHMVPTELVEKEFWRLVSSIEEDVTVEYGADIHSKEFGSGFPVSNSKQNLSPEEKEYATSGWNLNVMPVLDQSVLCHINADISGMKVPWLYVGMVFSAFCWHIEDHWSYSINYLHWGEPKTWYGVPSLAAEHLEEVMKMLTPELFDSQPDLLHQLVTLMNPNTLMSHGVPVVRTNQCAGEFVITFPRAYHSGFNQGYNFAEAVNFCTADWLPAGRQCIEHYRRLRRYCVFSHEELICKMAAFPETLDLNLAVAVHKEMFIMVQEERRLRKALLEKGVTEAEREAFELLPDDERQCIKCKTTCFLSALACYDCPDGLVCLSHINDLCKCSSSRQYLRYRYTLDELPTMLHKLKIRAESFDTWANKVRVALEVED
Description: as §1

[3] = target: T2, Lysine-specific demethylase 5A [1-801] (Homo sapiens, UniProt P29375)
T2 construct: 1-801
T2 sequence (P29375 whole entry): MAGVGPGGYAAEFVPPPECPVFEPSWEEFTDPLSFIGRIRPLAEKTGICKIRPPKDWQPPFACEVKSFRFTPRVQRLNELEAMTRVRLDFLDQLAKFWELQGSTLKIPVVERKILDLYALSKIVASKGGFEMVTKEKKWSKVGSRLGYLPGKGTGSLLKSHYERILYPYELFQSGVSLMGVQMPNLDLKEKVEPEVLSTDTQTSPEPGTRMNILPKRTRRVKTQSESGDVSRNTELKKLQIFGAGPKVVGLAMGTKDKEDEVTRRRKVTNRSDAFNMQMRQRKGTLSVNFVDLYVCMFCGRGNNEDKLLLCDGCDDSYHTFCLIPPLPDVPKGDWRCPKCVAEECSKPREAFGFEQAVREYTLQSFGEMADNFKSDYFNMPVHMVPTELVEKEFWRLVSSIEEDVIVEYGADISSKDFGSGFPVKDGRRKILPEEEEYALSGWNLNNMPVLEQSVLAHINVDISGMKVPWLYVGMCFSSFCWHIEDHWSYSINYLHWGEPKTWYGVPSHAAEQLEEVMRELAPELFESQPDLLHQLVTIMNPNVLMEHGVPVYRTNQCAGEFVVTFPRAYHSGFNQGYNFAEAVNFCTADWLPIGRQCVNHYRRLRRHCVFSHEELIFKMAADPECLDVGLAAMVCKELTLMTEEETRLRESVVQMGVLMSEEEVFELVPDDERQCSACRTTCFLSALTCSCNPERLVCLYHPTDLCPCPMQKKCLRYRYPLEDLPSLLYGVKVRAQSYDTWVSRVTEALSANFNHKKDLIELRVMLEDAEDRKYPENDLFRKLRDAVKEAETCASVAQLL
Description: as §1

[4] = target: T3, Lysine-specific demethylase 4C (Homo sapiens, UniProt Q9H3R0)
T3 sequence (Q9H3R0 whole entry): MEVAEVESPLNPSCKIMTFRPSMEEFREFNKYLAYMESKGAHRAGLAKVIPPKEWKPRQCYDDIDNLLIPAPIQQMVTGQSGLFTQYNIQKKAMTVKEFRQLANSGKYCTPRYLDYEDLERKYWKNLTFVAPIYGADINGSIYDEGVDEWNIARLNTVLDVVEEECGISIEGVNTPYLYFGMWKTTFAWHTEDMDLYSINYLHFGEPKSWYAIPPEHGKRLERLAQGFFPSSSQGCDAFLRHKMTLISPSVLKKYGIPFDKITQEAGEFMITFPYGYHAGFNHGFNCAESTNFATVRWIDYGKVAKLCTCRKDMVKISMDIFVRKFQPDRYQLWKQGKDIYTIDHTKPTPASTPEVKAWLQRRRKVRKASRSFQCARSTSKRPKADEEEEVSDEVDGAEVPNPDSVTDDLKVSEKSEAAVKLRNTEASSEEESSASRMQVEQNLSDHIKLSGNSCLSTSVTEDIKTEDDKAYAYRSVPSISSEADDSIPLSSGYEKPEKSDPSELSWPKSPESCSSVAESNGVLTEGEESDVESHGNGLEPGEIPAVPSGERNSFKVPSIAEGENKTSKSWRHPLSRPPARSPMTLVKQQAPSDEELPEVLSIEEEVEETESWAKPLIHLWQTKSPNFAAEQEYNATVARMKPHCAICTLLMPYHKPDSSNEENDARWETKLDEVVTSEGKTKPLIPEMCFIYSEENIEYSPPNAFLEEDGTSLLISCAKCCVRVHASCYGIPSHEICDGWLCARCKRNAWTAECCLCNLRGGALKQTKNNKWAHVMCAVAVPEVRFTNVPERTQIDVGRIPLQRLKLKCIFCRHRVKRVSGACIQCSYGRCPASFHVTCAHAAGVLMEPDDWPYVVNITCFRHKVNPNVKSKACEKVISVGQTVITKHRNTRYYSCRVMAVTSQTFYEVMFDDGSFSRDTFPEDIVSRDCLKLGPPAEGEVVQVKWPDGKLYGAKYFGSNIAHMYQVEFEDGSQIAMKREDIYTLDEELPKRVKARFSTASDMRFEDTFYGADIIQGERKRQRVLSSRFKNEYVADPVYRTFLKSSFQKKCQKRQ
Description: as §1

[5] = target: T4, Lysine-specific demethylase 5C [1-765] (Homo sapiens, UniProt P41229)
T4 construct: 1-765
T4 sequence (P41229 whole entry): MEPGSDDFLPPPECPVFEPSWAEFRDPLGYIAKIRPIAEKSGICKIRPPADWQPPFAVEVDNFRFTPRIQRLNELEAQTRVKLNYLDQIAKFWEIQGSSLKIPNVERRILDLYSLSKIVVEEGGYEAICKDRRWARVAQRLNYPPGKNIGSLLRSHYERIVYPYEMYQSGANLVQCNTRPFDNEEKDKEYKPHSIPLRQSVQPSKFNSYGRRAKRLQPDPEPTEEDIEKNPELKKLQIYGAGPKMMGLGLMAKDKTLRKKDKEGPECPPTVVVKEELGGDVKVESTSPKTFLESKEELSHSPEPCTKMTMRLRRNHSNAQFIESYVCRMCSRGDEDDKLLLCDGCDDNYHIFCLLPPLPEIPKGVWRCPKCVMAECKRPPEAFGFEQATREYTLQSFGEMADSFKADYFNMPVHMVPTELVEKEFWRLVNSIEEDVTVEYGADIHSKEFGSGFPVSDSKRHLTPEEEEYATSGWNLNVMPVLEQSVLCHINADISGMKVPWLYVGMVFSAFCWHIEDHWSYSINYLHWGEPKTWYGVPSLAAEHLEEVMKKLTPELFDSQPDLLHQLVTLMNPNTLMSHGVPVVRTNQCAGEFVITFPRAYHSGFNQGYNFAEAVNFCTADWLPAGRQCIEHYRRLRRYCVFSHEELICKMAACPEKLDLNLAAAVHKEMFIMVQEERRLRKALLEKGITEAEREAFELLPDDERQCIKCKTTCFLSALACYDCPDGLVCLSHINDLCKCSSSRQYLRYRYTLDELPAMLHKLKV
Description: as §1

[6] = target: T5, Lysine-specific demethylase 2A (Homo sapiens, UniProt Q9Y2K7)
T5 sequence (Q9Y2K7 whole entry): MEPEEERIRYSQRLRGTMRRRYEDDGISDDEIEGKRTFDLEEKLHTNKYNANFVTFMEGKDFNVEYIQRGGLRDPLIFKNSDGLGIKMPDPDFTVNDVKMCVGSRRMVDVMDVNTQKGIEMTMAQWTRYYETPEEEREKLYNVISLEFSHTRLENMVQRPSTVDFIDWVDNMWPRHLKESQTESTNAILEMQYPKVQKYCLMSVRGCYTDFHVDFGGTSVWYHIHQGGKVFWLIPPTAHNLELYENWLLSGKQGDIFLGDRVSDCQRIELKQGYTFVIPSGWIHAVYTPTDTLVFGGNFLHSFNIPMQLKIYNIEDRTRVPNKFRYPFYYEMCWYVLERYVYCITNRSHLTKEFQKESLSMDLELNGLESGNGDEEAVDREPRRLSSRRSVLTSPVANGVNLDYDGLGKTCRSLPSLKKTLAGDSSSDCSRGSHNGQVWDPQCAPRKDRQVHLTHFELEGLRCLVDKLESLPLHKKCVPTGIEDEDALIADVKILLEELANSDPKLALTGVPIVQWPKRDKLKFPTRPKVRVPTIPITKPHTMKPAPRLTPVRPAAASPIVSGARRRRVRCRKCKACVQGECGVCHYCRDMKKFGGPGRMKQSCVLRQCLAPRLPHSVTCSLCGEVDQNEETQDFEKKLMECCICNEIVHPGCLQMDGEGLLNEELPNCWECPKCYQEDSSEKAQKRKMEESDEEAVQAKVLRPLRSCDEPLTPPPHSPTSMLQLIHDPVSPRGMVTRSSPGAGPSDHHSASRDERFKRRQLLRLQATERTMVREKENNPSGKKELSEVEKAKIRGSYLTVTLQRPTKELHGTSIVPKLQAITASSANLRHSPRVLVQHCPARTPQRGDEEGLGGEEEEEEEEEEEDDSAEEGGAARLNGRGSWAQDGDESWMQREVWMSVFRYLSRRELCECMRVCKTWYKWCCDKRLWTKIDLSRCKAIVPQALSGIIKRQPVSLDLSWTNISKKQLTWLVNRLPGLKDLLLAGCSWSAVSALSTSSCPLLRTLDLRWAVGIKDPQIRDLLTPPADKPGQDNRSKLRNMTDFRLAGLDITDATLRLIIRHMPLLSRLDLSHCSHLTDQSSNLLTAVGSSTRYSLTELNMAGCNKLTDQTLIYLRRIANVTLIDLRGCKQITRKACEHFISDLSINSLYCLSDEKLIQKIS
Description: as §1

[7] = target: T6, Lysine-specific demethylase 3A (Homo sapiens, UniProt Q9Y4C1)
T6 sequence (Q9Y4C1 whole entry): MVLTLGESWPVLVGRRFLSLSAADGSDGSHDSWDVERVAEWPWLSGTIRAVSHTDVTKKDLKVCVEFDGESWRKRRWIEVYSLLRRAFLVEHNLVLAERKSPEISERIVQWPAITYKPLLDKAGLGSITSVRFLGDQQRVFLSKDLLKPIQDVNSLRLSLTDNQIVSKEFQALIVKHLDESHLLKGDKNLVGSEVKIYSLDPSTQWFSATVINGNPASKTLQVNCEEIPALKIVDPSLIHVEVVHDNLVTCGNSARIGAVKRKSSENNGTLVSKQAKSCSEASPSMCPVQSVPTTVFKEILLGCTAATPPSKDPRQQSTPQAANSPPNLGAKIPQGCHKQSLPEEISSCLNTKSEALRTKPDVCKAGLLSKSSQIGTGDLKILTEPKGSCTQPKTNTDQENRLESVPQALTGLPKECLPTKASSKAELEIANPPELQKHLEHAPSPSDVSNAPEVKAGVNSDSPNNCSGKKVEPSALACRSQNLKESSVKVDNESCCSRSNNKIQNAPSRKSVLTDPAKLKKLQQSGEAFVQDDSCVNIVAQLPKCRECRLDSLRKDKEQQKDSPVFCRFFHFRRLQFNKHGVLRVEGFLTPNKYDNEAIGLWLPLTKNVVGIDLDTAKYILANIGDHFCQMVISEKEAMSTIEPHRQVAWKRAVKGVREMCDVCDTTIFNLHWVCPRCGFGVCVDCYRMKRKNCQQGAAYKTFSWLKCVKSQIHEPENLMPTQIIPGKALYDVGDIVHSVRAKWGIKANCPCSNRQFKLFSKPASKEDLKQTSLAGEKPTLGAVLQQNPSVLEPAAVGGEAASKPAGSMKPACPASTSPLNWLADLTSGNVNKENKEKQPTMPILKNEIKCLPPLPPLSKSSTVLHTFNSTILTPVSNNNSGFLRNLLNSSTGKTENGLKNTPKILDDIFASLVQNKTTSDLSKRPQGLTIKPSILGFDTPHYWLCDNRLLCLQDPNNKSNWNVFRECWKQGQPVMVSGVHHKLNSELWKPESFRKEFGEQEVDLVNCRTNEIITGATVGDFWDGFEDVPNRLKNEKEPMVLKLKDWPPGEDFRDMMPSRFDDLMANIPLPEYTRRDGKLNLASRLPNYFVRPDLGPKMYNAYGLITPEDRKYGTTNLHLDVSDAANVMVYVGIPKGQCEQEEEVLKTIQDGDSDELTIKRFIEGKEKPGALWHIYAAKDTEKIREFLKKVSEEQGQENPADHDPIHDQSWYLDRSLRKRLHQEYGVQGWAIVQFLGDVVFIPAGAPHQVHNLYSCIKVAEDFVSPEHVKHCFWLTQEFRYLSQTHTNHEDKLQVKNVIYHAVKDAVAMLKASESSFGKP
Description: as §1

[8] = target: Lysine-specific demethylase 6B (Homo sapiens, UniProt O15054)
Lysine-specific demethylase 6B, sequence (O15054 whole entry): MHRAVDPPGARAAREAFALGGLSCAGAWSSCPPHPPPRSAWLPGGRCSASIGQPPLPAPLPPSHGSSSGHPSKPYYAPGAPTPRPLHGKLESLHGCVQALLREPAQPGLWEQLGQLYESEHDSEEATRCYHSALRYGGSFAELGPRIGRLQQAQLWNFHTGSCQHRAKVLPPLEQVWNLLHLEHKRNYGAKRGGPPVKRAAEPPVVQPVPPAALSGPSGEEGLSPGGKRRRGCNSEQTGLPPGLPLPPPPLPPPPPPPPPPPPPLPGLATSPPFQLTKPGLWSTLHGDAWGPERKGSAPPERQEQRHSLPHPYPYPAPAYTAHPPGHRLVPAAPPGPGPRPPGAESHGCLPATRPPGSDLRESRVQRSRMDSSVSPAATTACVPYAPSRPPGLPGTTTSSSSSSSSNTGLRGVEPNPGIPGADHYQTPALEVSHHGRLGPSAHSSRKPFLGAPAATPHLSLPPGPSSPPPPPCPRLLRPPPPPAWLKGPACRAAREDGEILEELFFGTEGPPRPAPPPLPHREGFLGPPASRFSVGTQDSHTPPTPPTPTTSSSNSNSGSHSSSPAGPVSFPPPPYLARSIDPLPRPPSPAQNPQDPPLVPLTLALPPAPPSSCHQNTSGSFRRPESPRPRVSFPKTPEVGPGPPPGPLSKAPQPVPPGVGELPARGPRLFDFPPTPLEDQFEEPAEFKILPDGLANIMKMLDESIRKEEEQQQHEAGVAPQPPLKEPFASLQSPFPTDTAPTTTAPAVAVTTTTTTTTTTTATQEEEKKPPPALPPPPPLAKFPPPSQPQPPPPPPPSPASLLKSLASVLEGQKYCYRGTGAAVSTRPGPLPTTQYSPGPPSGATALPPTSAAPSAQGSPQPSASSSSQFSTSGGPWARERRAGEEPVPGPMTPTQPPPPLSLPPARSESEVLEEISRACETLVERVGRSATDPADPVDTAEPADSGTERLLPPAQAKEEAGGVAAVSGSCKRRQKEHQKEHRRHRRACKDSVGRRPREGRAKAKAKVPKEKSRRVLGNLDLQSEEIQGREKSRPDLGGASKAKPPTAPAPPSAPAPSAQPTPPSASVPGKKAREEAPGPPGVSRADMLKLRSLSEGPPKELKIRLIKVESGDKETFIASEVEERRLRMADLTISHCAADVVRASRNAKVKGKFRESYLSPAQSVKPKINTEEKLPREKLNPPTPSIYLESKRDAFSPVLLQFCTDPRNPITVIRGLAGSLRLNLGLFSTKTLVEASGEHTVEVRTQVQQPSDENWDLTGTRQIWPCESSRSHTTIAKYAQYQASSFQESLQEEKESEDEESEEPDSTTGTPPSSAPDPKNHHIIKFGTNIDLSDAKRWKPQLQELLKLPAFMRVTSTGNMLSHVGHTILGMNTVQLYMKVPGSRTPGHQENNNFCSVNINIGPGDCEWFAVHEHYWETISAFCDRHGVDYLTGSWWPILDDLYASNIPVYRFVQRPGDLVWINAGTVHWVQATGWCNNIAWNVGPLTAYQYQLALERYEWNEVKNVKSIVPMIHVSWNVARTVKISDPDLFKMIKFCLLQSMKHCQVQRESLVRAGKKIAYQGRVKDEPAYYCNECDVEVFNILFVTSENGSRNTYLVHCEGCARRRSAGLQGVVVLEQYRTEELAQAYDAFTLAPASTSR
Description: as §1

Lysine-specific demethylase 5B, sequence (Q9UGL1 whole entry): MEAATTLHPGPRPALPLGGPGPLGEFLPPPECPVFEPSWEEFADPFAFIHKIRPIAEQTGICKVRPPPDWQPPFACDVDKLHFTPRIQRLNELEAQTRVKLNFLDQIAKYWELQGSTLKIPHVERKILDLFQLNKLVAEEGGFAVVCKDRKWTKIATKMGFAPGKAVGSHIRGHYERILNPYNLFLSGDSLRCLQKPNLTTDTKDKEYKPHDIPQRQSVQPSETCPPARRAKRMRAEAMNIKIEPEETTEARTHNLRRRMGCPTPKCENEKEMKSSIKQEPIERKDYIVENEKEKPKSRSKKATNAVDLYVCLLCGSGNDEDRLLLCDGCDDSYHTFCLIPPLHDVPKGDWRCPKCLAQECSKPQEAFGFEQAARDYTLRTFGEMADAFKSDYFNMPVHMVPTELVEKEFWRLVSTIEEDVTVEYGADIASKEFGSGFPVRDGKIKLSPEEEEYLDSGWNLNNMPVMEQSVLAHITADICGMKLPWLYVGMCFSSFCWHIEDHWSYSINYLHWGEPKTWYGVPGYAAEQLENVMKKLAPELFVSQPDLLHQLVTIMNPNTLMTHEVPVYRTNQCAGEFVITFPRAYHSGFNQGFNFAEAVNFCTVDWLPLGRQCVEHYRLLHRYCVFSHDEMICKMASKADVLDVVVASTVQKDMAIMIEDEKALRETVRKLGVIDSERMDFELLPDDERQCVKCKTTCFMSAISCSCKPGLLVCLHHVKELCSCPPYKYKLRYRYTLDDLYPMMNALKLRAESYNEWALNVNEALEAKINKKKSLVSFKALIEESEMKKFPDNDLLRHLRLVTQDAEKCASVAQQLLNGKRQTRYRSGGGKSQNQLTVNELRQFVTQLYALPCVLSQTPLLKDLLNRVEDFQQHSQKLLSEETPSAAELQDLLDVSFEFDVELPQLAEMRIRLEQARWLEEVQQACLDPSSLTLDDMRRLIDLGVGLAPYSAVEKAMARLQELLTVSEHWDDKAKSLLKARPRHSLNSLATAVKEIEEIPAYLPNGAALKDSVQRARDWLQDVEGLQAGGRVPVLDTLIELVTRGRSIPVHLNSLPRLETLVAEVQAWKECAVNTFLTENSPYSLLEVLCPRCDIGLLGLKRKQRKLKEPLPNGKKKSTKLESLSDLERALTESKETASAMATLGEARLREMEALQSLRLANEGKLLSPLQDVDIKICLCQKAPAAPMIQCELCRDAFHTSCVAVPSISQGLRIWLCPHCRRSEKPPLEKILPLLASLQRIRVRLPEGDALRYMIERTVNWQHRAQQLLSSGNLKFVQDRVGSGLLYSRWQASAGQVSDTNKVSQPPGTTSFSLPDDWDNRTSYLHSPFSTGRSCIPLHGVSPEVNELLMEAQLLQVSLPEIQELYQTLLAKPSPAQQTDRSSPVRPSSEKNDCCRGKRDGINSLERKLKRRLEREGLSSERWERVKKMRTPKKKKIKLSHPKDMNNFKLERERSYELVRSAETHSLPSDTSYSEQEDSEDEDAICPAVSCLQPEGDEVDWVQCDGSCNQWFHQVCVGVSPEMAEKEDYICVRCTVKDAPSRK

Structure (SMILES)	IC50 [1] [µM]	IC50 [2] [µM]	IC50 [3] [µM]	IC50 [4] [µM]	IC50 [5] [µM]	IC50 [6] [µM]	IC50 [7] [µM]	IC50 [8] [µM]
O=C(O)CNC(=O)C(=O)O	24.5	5.8	6.9	41.5				
O=c1[nH]c(Oc2cnn(Cc3ccccc3)c2)nc2cnccc12 [GSK467]	0.026	0.077	0.024	5.1	0.065		33.9	

Results, then the compound that gave them:

IC50 [1] [µM]	IC50 [2] [µM]	IC50 [3] [µM]	IC50 [4] [µM]	IC50 [5] [µM]	IC50 [6] [µM]	IC50 [7] [µM]	IC50 [8] [µM]	Structure (SMILES)
0.55	1.5	3.9	64.9	1.5				O=C(O)CCNc1cc(N2CCc3ccccc3CC2)nc(-c2ccccn2)n1 [GSK-J1]
0.004	0.015	0.007	0.21	0.013	2.2	0.78	1.4	CCN(CCN(C)C)C(=O)CNCc1cc(C(=O)O)ccn1 [KDOAM-20]
	2.5	1.3						O=C(O)c1ccnc(C(=O)O)c1 [pyridine-2,4-dicarboxylic acid]
